Laboratory results from ChEMBL document CHEMBL5036318, “Synthesis and Biological Evaluation of Phosphoester and Phosphorothioate Prodrugs of STING Agonist 3',3'-c-Di(2'F,2'dAMP)” (J Med Chem, 2021).

Legend:
[1] = Activation of human STING Q mutant expressed in digitonin treated HEK293T cells co-expressing IRF3-activated ISRE assessed as IRF3 reporter activation by luciferase reporter gene assay; assay type: cell-based; settings: HEK-293T
[2] = target: T1, Stimulator of interferon genes protein (Homo sapiens, UniProt Q86WV6); test: Activation of wild-type human STING expressed in HEK293T cells co-expressing IRF3-activated ISRE assessed as IRF3 reporter activation measured after 30 mins by luciferase reporter gene assay; assay type: cell-based
T1 sequence (Q86WV6 whole entry): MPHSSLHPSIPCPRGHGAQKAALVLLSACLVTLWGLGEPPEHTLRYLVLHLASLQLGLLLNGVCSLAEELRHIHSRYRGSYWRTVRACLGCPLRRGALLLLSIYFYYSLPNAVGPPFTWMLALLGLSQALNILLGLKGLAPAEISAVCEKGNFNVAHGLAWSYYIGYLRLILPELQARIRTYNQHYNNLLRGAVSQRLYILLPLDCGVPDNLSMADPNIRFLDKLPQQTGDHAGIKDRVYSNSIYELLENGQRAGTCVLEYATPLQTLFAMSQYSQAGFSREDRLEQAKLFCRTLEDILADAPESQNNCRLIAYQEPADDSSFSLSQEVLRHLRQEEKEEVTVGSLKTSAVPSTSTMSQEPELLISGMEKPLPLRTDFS

[3] = target: T1, Stimulator of interferon genes protein; test: Activation of wild-type human STING expressed in HEK293T cells co-expressing IRF3-activated ISRE assessed as IRF3 reporter activation measured after 7 hrs by luciferase reporter gene assay; assay type: cell-based
[4] = target: T1, Stimulator of interferon genes protein; test: Activation of wild-type human STING expressed in digitonin treated human THP1-Dual cells co-expressing IRF3-activated ISRE assessed as IRF3 reporter activation measured after 30 mins by luciferase reporter gene assay; assay type: cell-based
[5] = target: T1, Stimulator of interferon genes protein; test: Activation of wild-type human STING expressed in human THP1-Dual cells co-expressing IRF3-activated ISRE assessed as IRF3 reporter activation measured after 7 hrs by luciferase reporter gene assay; assay type: cell-based
[6] = Induction of INF-alpha production in healthy human PBMC incubated for 16 hrs; assay type: functional, tissue-based
[7] = Induction of INF-gamma production in healthy human PBMC incubated for 16 hrs; assay type: functional, tissue-based
[8] = Induction of TNF-alpha production in healthy human PBMC incubated for 16 hrs; assay type: functional, tissue-based
cells = settings: Homo sapiens, HEK-293T
Description: Activation of human STING REF mutant expressed in digitonin treated HEK293T cells co-expressing IRF3-activated ISRE assessed as IRF3 reporter activation by luciferase reporter gene assay

[9] = target: T1, Stimulator of interferon genes protein; test: Potency index, ratio of test compound EC50 to prodrug EC50 for activation of wild-type human STING expressed in human THP1-Dual cells co-expressing IRF3-activated ISRE assessed as IRF3 reporter activation measured after 30 mins by luciferase reporter gene assay; assay type: cell-based
[10] = target: T1, Stimulator of interferon genes protein; test: Potency index, ratio of test compound EC50 to prodrug EC50 for activation of wild-type human STING expressed in HEK293T cells co-expressing IRF3-activated ISRE assessed as IRF3 reporter activation measured after 30 mins by luciferase reporter gene assay; assay type: cell-based
[11] = target: T1, Stimulator of interferon genes protein; test: Potency index, ratio of test compound EC50 to prodrug EC50 for activation of wild-type human STING expressed in HEK293T cells co-expressing IRF3-activated ISRE assessed as IRF3 reporter activation measured after 7 hrs by luciferase reporter gene assay; assay type: cell-based
[12] = target: T1, Stimulator of interferon genes protein; test: Potency index, ratio of test compound EC50 to prodrug EC50 for activation of wild-type human STING expressed in digitonin treated THP1-Dual cells co-expressing IRF3-activated ISRE assessed as IRF3 reporter activation measured after 7 hrs by luciferase reporter gene assay; assay type: cell-based
[13] = Potency index, ratio of test compound EC50 to prodrug EC50 for induction of INF-alpha production in healthy human PBMC incubated for 16 hrs; assay type: functional
[14] = Potency index, ratio of test compound EC50 to prodrug EC50 for induction of INF-gamma production in healthy human PBMC incubated for 16 hrs; assay type: functional
[15] = Potency index, ratio of test compound EC50 to prodrug EC50 for induction of TNF-alpha production in healthy human PBMC incubated for 16 hrs; assay type: functional

| Compound | EC50 [1] [nM] | EC50 [2] [nM] | EC50 [3] [nM] | EC50 [4] [nM] | EC50 [5] [nM] | EC50 [6] [nM] | EC50 [7] [nM] | EC50 [8] [nM] | EC50 (cells) [nM] | Ratio EC50 [9] | Ratio EC50 [10] | Ratio EC50 [11] | Ratio EC50 [12] | Ratio EC50 [13] | Ratio EC50 [14] | Ratio EC50 [15] |
| --- | --- | --- | --- | --- | --- | --- | --- | --- | --- | --- | --- | --- | --- | --- | --- | --- |
| Nc1nc2c(ncn2[C@@H]2O[C@@H]3COP(=O)(O)O[C@@H]4[C@H](O)[C@@H](COP(=O)(O)O[C@@H]2[C@@H]3O)O[C@H]4n2cnc3c(N)ncnc32)c(=O)[nH]1 | 170 | 85100 | 11700 | 28500 | 2630 | 17300 | 11500 | 72600 |  |  |  |  |  |  |  |  |
| Nc1nc2c(ncn2[C@@H]2O[C@@H]3COP(=O)(O)O[C@H]4[C@@H](O)[C@H](n5cnc6c(=O)[nH]c(N)nc65)O[C@@H]4COP(=O)(O)O[C@H]3[C@H]2O)c(=O)[nH]1 | > 45000 |  |  |  |  |  |  |  | 8410 |  |  |  |  |  |  |  |
| CC(C)(C)C(=O)OCS[P@@]1(=O)OC[C@H]2O[C@@H](n3cnc4c(N)ncnc43)[C@H](F)[C@@H]2O[P@@](=O)(SCOC(=O)C(C)(C)C)OC[C@H]2O[C@@H](n3cnc4c(N)ncnc43)[C@H](F)[C@@H]2O1 |  | 40 | 70 | 80 | 50 | 720 | 1190 | 180 |  | 152 | 62 | 23 | 159 | 41 | 8 | 146 |
| CCC(CC)C(=O)OCO[P@]1(=O)OC[C@H]2O[C@@H](n3cnc4c(N)ncnc43)[C@H](F)[C@@H]2O[P@](=O)(OCOC(=O)C(CC)CC)OC[C@H]2O[C@@H](n3cnc4c(N)ncnc43)[C@H](F)[C@@H]2O1 |  | 70 | 10 | 110 | 20 | 50 | 4 | 20 |  |  |  |  |  | 985 | 2135 | 1485 |
| Nc1ncnc2c1ncn2[C@@H]1O[C@@H]2CO[P@@](=O)(OCOC(=O)c3ccccc3)O[C@H]3[C@@H](F)[C@H](n4cnc5c(N)ncnc54)O[C@@H]3CO[P@](=O)(OCOC(=O)c3ccccc3)O[C@H]2[C@H]1F |  |  | 40 | 330 | 40 | 700 | 30 | 230 |  |  |  |  |  |  |  |  |
| CCC(CC)C(=O)OCO[P@]1(=O)OC[C@H]2O[C@@H](n3cnc4c(N)ncnc43)[C@H](F)[C@@H]2OP(=O)(O)OC[C@H]2O[C@@H](n3cnc4c(N)ncnc43)[C@H](F)[C@@H]2O1 |  | 1360 | 450 | 970 | 150 |  |  |  |  | 20 | 71 | 18 | 7 |  |  |  |
| Nc1ncnc2c1ncn2[C@@H]1O[C@@H]2CO[P@@](=O)(OCOC(=O)c3ccccc3)O[C@H]3[C@@H](F)[C@H](n4cnc5c(N)ncnc54)O[C@@H]3COP(=O)(O)O[C@H]2[C@H]1F |  | 3090 | 400 | 1740 | 270 |  |  |  |  | 11 | 31 | 20 | 4 |  |  |  |
| CC(C)(C)C(=O)OCS[P@]1(=O)OC[C@H]2O[C@@H](n3cnc4c(N)ncnc43)[C@H](F)[C@@H]2O[P@](=O)(SCOC(=O)C(C)(C)C)OC[C@H]2O[C@@H](n3cnc4c(N)ncnc43)[C@H](F)[C@@H]2O1 |  | 180 | 120 | 60 | 20 | 130 | 90 | 100 |  | 55 | 38 | 10 | 15 | 301 | 68 | 93 |
| CC(C)OC(=O)OCO[P@@]1(=O)OC[C@H]2O[C@@H](n3cnc4c(N)ncnc43)[C@H](F)[C@@H]2O[P@](=O)(OCOC(=O)OC(C)C)OC[C@H]2O[C@@H](n3cnc4c(N)ncnc43)[C@H](F)[C@@H]2O1 |  | 940 | 170 | 970 | 110 | 1290 | 1470 | 710 |  |  |  |  |  | 40 | 6 | 45 |
| CC(C)(C)C(=O)OCO[P@]1(=O)OC[C@H]2O[C@@H](n3cnc4c(N)ncnc43)[C@H](F)[C@@H]2OP(=O)(O)OC[C@H]2O[C@@H](n3cnc4c(N)ncnc43)[C@H](F)[C@@H]2O1 |  | 460 | 130 | 500 | 180 |  |  |  |  | 38 | 212 | 61 | 6 |  |  |  |
| Nc1nc2c(ncn2[C@@H]2O[C@@H]3COP(=O)(O)O[C@H]4[C@@H](O)[C@H](n5cnc6c(N)ncnc65)O[C@@H]4COP(=O)(O)O[C@H]3[C@H]2O)c(=O)[nH]1 |  |  |  |  |  | 26700 | 15100 | > 300000 | 4260 |  |  |  |  |  |  |  |
| CCC(CC)C(=O)OCO[P@@]1(=O)OC[C@H]2O[C@@H](n3cnc4c(N)ncnc43)[C@H](F)[C@@H]2O[P@](=O)(OCOC(=O)C(CC)CC)OC[C@H]2O[C@@H](n3cnc4c(N)ncnc43)[C@H](F)[C@@H]2O1 |  | 230 | 30 | 350 | 50 | 260 | 30 | 70 |  |  |  |  |  | 195 | 285 | 432 |
| CC(C)(C)C(=O)OCS[P@@]1(=O)OC[C@H]2O[C@@H](n3cnc4c(N)ncnc43)[C@H](F)[C@@H]2O[P@](=O)(SCOC(=O)C(C)(C)C)OC[C@H]2O[C@@H](n3cnc4c(N)ncnc43)[C@H](F)[C@@H]2O1 |  | 40 | 40 | 30 | 20 | 70 | 50 | 100 |  | 94 | 14 | 3 | 18 | 260 | 222 | 82 |
| CC(C)OC(=O)OCO[P@]1(=O)OC[C@H]2O[C@@H](n3cnc4c(N)ncnc43)[C@H](F)[C@@H]2O[P@](=O)(OCOC(=O)OC(C)C)OC[C@H]2O[C@@H](n3cnc4c(N)ncnc43)[C@H](F)[C@@H]2O1 |  | 310 | 30 | 380 | 30 | 360 | 160 | 350 |  |  |  |  |  | 414 | 51 | 90 |
| CC(C)OC(=O)OCO[P@]1(=O)OC[C@H]2O[C@@H](n3cnc4c(N)ncnc43)[C@H](F)[C@@H]2OP(=O)(O)OC[C@H]2O[C@@H](n3cnc4c(N)ncnc43)[C@H](F)[C@@H]2O1 |  | 1930 | 320 | 1710 | 200 |  |  |  |  | 11 | 50 | 25 | 5 |  |  |  |
